The results in this text go back to patent US20050176735A1, “Polymorphs of zaleplon and methods for the preparation thereof” (priority 2000, published 2005).

Data set [1] can be described thus: Solid-state stability on storage at controlled temperature and relative humidity or on heating. Conditions: for Stability on storage (form conversion): about 60° C. and about 75% relative humidity; for Stability on heating (form conversion): heated at about 80° C.
The nature of data set [2]: Moisture adsorption/desorption isotherm (moisture balance). It counts as physicochemical. Conditions: for Hygroscopicity from moisture adsorption/desorption curves: 25° C., 5 to 95% relative humidity. Here is the method: Moisture adsorption; desorption data were collected on a VTI SGA-100 moisture balance system. available from VTI Corporation of Hialeah, Fla. For adsorption isotherms an adsorption range of 5 to 95% relative humidity and a desorption range of 95 to 5% relative humidity in 10% relative humidity increments were used for analysis. The samples were not dried prior to analysis. Equilibrium criteria used for analysis were less than 0.0100 weight percent change in 5 minutes with a maximum equilibration time of 3 hours if the weight criterion was not met. Data were not corrected for the initial moisture content of-the samples.

Data set [3] can be described thus: Relative solubility in water.

Molecules are shown by their SMILES.

`CCN(C(C)=O)c1cccc(-c2ccnc3c(C#N)cnn23)c1` [Form III, N-[3-(3-cyanopyrazolo[1,5a]pyrimidin-7-yl)phenyl]-N-ethylacetamide]: for the setting “aqueous and non-aqueous environments”, the “Relative stability in aqueous and non-aqueous environments” value was “more stable in aqueous and non-aqueous environments than Form II”. For the same molecule, the “Stability on storage of hydrates (form conversion)” value in data set [1] (about 40° C. and about 75% relative humidity, time not stated) was “resulting in a mixture of Forms II and III”. Moreover, the “Stability on storage (form conversion)” value in data set [1] (time not stated) is “converts to Form I”. For the same molecule, the “Stability on heating (form conversion)” value in data set [1] is reported as “converts to Form I”. Further, the “Relative humidity up to which the form is generally anhydrous” value in data set [2] (relative humidity) was “about 30%”.

For the molecule `CCN(C(C)=O)c1cccc(-c2ccnc3c(C#N)cnn23)c1` [Form I, N-[3-(3-cyanopyrazolo[1,5a]pyrimidin-7-yl)phenyl]-N-ethylacetamide], in data set [1] (absence of water), the “Relative stability versus the other forms” value is “more stable than Forms II and III”. The “General stability to humidity and temperature” value in data set [1] (broad range of humidity and temperature conditions) is recorded as “stable”. In addition, the “Hygroscopicity from moisture adsorption/desorption curves” value in data set [2] is reported as “non-hygroscopic”.

On to `CCN(C(C)=O)c1cccc(-c2ccnc3c(C#N)cnn23)c1` [Form II, N-[3-(3-cyanopyrazolo[1,5a]pyrimidin-7-yl)phenyl]-N-ethylacetamide], for which the “Form conversion in solvent” value (solvent system containing an organic solvent and optionally water) is “converts into Form III”. The “Form conversion in water” value (water) is on record as “converted into Form III”. Moreover, in data set [1] (about 40° C. and about 75% relative humidity for 4 weeks), the Stability on storage entry was “stable”. Further, in data set [1] (4 weeks (same time period)), the “Stability on storage (form conversion)” value is reported as “converts into Form I”. The “Stability on heating (form conversion)” value in data set [1] is given as “converts into Form I”. Further, the “Solubility in water relative to the other form” value in data set [3] is “mole soluble in water than Form III”. Besides, the “Hygroscopicity from moisture adsorption/desorption curves” value in data set [2] is given as “moisture content of Form II of zaleplon varies depending on the relative humidity of its environment”.
